Values quoted from earlier work in patent publication US7521425B2, “Anti-angiogenic compounds” (Covx Technologies Ireland Limited, priority 2005, dated 2009).

Legend:
[1] = molecular target: h38C2; conditions: against immobilized BSA-conjugated β-diketone 1, read-out: apparent equilibrium dissociation constant
[2] = molecular target: m38C2; conditions: against immobilized BSA-conjugated β-diketone 1, read-out: apparent equilibrium dissociation constant

SMILES	Kd [1]	Kd [2]
CC(=O)CC(C)=O [β-diketone 2]	7.6 µM	38 µM
CC(=O)CC(=O)CCc1ccccc1 [β-diketone 3]	1 µM	0.43 µM
